Experimental data: patent US4048305A, “Tripeptides, their esters and amides, and anti-ulcera activity thereof” (Dr. L. Zambeletti S.p.A., priority 1975, dated 1977)
Square brackets hold non-standard residues; d marks the D form. Peptide text beside a SMILES is read from it.

Key:
[1] = tested on: female rats of "Wistar" strain; experiment: Gastro-protective activity, Shay method (pylorus tying) in rats; type: in vivo, rat; details: 100 mg/Kg in peanut oil, 18 hours after administration; for Rat (Shay test) Ulcer depth M ± es: arbitrary values 1 to 4, peanut oil controls 2.4 ± 0.5; for Rat (Shay test) No. of ulcers M ± es: ulcers in the rumen, peanut oil controls 10.7 ± 2.2
Method: Gastro-protective activity of the products was assayed on rats by employing the Shay method (Shay H., Komarov, S. A., Fels, S. S., Meranze, D;, Gruenstein, M. and Siplet, H:Gastroenterology, 5, 43-61, 1945).
The investigation was performed on female rats of "Wistar" strain, of the average weight of 200 g., which had been held, before experiment, in the cages for 10 days at standard ambient conditions (temperature 22° C, humidity about 50%) on a controlled diet (Altromin).
72 hours before the test the animals, distributed into individual cages, were deprived of food while leaving water "ad libitum".
At the end of this time, the animals were anaesthetized with ether and, by opening the abdomen, the tying of the pylorus was effected as well as, thereafter, the administration of the products in the dose of 100 mg/Kg dissolved into peanut oil. The suture of the abdomen was then performed and the animals were then placed again into their respective contention cages.
For each product 15 animals were used whilst another set of 15 animals, which served as control, was given peanut oil at the same volume as that of the treated ones.
After 18 hours from administration of the products, the animals were killed under chloroformic narcosis, the stomachs were removed and opened along the greter curvature and then fixed on cork supports for counting the number of ulcers present in the "rumen" and for evaluating the depth of the lesions by arbitrarily assigning values ranging from 1 to 4 according to the intensity of the lesion.

[2] = tested on: "Swiss" strain male mouse; experiment: Acute toxicity (lethality) in mouse, oral; type: in vivo; details: for Mouse LD50: Swiss male mouse, fasted 15 hours, suspended in peanut oil, gastric probe
Method: The acute toxicity was assayed in "Swiss" strain male mouse weighing 20-24 g. which were held, before the test, in the cages for 10 days at standard ambient conditions (temperature 22° C, humidity about 50%) and kept on a controlled diet (Altromin).
Before the test, the animals were deprived of food for 15 hours, while leaving water "ad libitum".
Lethality was determined on 10 animals for each group-dose by using on the whole 60 animals for each product. For administration, the products were suspended into peanut oil and administered at the maximum volume of 0.1 ml/10 g. of body weight, by means of a gastric probe.

Structure (SMILES) | Rat (Shay test) Ulcer depth M ± es [1] | Rat (Shay test) No. of ulcers M ± es [1] | Mouse LD50 [2] [mg/Kg/os] | LD50 ([2]; mouse, oral, in peanut oil)
COC(=O)C(Cc1c[nH]cn1)NC(=O)C(Cc1ccccc1)NC(=O)C(Cc1ccccc1)NC(C)=O (mixture of isomers) [N-acetyl-dl-phenylalanyl-dl-phenylalanyl-dl-histidine methylester] | 1.7 ± 0.2 | 6.7 ± 1.7 | > 5000 | 
COC(=O)[C@H](Cc1c[nH]cn1)NC(=O)[C@@H](Cc1ccccc1)NC(=O)[C@H](Cc1ccccc1)NC(C)=O [N-acetyl-l-phenylalanyl-d-phenylalanyl-l-histidine-methylester] | 1.5 ± 0.4 | 5.6 ± 1.5 | > 5000 | 
CC(=O)N[C@@H](Cc1ccccc1)C(=O)N[C@H](Cc1ccccc1)C(=O)N[C@@H](Cc1c[nH]cn1)C(N)=O [N-acetyl-l-phenylalanyl-d-phenylalanyl-l-histidineamide] (Ac-Phe-[dF]-His-NH2) | 1.3 ± 0.2 | 6.2 ± 1.6 | > 5000 | 
CNC(=O)[C@H](Cc1c[nH]cn1)NC(=O)[C@H](Cc1ccccc1)NC(=O)[C@H](Cc1ccccc1)NC(C)=O [N-acetyl-l-phenylalanyl-l-phenylalanyl-l-histidine methylamide] (Ac-Phe-Phe-His-NHMe) | 1.4 ± 0.3 | 5.8 ± 1.4 | > 5000 | 
COC(=O)[C@H](Cc1c[nH]cn1)NC(=O)[C@H](Cc1ccccc1)NC(=O)[C@H](Cc1ccccc1)NC(C)=O [N-acetyl-l-phenylalanyl-l-phenylalanyl-l-histidine methylester] | 1.1 ± 0.3 | 4.6 ± 1.1 | > 5000 | 
CC(=O)N[C@@H](Cc1ccccc1)C(=O)N[C@@H](Cc1ccccc1)C(=O)N[C@@H](Cc1c[nH]cn1)C(=O)O [N-acetyl-l-phenylalanyl-l-phenylalanyl-l-histidine] (Ac-Phe-Phe-His-OH) | 2.1 ± 0.3 | 8.4 ± 1.8 | ≥ 5000 | approximately 5 g./Kg
CC(=O)N[C@@H](Cc1ccccc1)C(=O)N[C@@H](Cc1ccccc1)C(=O)N[C@@H](Cc1c[nH]cn1)C(N)=O [N-acetyl-l-phenylalanyl-l-phenylalanyl-l-histidineamide] (Ac-Phe-Phe-His-NH2) | 1.1 ± 0.4 | 3.1 ± 1.7 | > 5000 | 
